For the test, the system named is Foreskin fibroblasts. Briefly: VEGF production by cultured fibroblasts, ELISA of culture media. The format is cell-based. The note with it: media after 24 hours of culture. The protocol:
(§1) Foreskin fibroblasts purchased from ATCC where cultured in T-75 flasks using Fibroblast Basal Media from ATCC. When cells reached 75% confluence, exposure to: a) Normoxia; b) hypoxia (2% oxygen for 4 hours); c) carbon monoxide (250 ppm) for 4 hours; or d) hypoxia followed by carbon monoxide. Cells were re-plated on 96 well plates, flat bottomed, by trypsinization. Concentration of re-plated cells was 0, 10,000, 20,000 and 40,000 cells per well. Culture media was extracted after 24 hours of culture and analyzed for VEGF production using ELISA (R&D Systems). […] No VEGF production was observed from Normoxic Control fibroblasts.
as §1, with “simultaneously as” for “followed by”, “monoxide” for “monoxide.”, “replated” for “re-plated”
(In general: In an ELISA, binding on a coated surface is turned into a signal by an enzyme label.)

Molecules are shown by their SMILES.

Regarding `[C-]#[O+]` [carbon monoxide], the VEGF production result is recorded as “synergistic increase” (hypoxia (2% oxygen for 4 hours) followed by carbon monoxide (250 ppm, 4 hours), FIG. 1) and “synergistic increase” (hypoxia (2% oxygen for 4 hours) simultaneously as carbon monoxide (250 ppm), FIG. 2).
